Experimental findings from patent US11814367B2, “Inhibitors of glycogen synthase 1 (GYS1) and methods of use thereof” (Maze Therapeutics, Inc., priority 2021, dated 2023) are described below.

Each structure is given as a SMILES string.

As a reminder, the IC50 is the concentration at which inhibition is half-maximal.

Assay [1] concerns hGYS1 enzyme / glycogen synthesis in HeLa cells. Kind of assay: GYS1 cell based assay (glycogen synthesis, Glucose-glo). Set-up: species or system human. The settings on record: 24 h incubation, 20 mM glucose, geometric mean of at least 2 runs. The source says: The GYS1 cell based assay is a bioluminescent assay that quantifies the glucose resulting from glycogen digestion; the quantified glucose is an indirect measure of GYS1 glycogen synthesis. Newly synthesized glycogen is digested using Glucoamylase; the resulting glucose is quantified by using the Glucose-glo assay kit from Promega. Glucose-glo works by coupling glucose oxidation and NADH production with a bioluminescent system that is activated with NADH. Glucose is oxidized by Glucose dehydrogenase and the reaction reduces NAD+ to NADH; NADH activates Reductase which reduces a pro-luciferin Reductase Substrate to luciferin. Luciferin is detected in a luciferase reaction using Ultra-Glo rLuciferase and ATP, and the luminesce produced is proportional to the glucose in the sample. The luminescence is measured as a single point read in a plate reader.
Compounds that inhibit the hGYS1 enzyme and, subsequently, the glycogen synthesis in cells, were tested using assay ready plates (white, clear bottom 384 well plates) in a final DMSO reaction volume of 1% DMSO. Compounds in the assay ready plates were mixed with media with no additives, except for 20 mM glucose prior to cell addition. HeLa cells were starved in media with no additives, except for 1× Glutamax for 24 h. Starved HeLa cells were plated, in a 1:1 ratio to the media in the assay ready plate and incubated for 24 h at 37° C. and 5% C02. Cells were washed in 1×PBS buffer and lysed in lysis buffer containing 50% 1×PBS and 25% 0.3 N HCl of the final volume in the well or reaction volume; cells were incubated with lysis buffer for 10 minutes and quenched with the remaining 25% of the reaction volume that consisted of 450 mM Tris pH 8.0. Lysates were mixed in a 1:1 ratio with Glucoamylase in 100 mM Sodium Acetate buffer, pH 5.3; the mixture was incubated for 1 h at 37° C. The digested lysate was mixed in a 1:1 ratio with Glucose-glo detection mixture as per vendor recommendations (Luciferase detection buffer, Reductase, Reductase substrate, Glucose dehydrogenase, and NAD) in read-out plates (solid white 384-well plates) and incubated for 1 h at RT. The plates were read using a plate reader with luminescence capabilities. Each compound concentration Relative Luminescence Unit (RLU) was averaged and normalized to the average RLU of the positive and negative controls to obtain a percentage inhibition. The normalized data vs. concentration was plotted; to determine the half-maximal concentration (IC50), the Levenberg-Marquardt algorithm was used to fit a Hill equation to the dose response data.
The results are shown in Table 3 below, which reports the IC50 of each compound. Unless otherwise specified, IC50 values are reported as the geometric mean of at least 2 assay runs on separate days. As shown in the table below, the compounds of the present invention are potent inhibitors of human GYS1. Unless otherwise specified, IC50 values are reported as the geometric mean of at least two assay runs on separate days. Each run represents the average of a technical replicate, where each compound was assayed twice in the same plate. A superscript “#” symbol in Table 3 indicates results from a single assay run.

Assay [2] has as its target hGYS1 enzyme (recombinant hGYS1/GN1 protein) (Homo sapiens (Human), UniProt P13807). Kind of assay: GYS1 coupled enzyme assay (PK/LDH). As to conditions: hGYS1/GN1 50 nM, UDP-Glucose 0.8 mM, G6P 1 mM; geometric mean of at least 2 runs. The assay is classed as biochemical.

Sequence of hGYS1 enzyme (recombinant hGYS1/GN1 protein) (P13807 whole entry): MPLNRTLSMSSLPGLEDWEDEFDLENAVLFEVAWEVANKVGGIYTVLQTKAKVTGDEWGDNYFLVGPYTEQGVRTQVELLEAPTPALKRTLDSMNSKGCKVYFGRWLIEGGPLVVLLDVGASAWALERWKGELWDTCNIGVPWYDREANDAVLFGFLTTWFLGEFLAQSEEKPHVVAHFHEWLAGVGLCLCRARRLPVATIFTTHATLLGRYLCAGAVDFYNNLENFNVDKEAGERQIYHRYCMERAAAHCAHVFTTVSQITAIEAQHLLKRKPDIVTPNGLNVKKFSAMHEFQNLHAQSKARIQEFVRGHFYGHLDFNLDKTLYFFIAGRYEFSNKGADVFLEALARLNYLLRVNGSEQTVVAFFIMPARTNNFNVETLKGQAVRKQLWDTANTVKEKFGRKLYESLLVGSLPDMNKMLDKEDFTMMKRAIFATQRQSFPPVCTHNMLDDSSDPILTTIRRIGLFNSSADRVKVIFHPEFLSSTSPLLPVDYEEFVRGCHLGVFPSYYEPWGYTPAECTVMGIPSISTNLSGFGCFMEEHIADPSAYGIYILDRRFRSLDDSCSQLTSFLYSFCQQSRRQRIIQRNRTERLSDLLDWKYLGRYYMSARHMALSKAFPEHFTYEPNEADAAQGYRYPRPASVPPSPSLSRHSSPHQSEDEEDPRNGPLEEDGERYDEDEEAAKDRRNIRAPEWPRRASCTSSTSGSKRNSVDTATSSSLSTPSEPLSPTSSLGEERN
Sequence of hGYS1 enzyme (recombinant hGYS1/GN1 protein) (P46976 whole entry partner): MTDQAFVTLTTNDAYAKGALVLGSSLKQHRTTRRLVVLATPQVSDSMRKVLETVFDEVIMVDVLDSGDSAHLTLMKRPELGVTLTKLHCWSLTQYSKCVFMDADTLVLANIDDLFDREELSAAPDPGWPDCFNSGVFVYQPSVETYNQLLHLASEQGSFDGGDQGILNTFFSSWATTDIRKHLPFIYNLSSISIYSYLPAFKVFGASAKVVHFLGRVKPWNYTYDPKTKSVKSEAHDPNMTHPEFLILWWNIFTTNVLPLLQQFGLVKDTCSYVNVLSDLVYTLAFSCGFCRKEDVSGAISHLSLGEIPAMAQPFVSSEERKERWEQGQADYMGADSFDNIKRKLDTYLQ

`CC(C)c1ccc(C(NC(=O)[C@@H]2C[C@@H](F)CN2C(=O)Cc2cnn[nH]2)c2ncc3ccccn23)nc1F` (single isomer, unassigned) [Compound 628, (2S,4R)-4-fluoro-N-[(R) or (S)-[6-fluoro-5-(propan-2-yl)pyridin-2-yl]({imidazo[1,5-a]pyridin-3-yl})methyl]-1-[2-(1H-1,2,3-triazol-5-yl)acetyl]pyrrolidine-2-carboxamide]: the IC50 in assay [1] (Homo sapiens, HeLa, 24 h) is > 30 µM; in assay [2] it was 2.78 µM.

Consider `CC(C)c1ccc(C(NC(=O)[C@@H]2C[C@@H](F)CN2C(=O)Cc2cnn[nH]2)c2ncn3ccccc23)nc1F` (single isomer, unassigned) [Compound 629, (2S,4R)-4-fluoro-N-[(S) or (R)-[6-fluoro-5-(propan-2-yl)pyridin-2-yl]({imidazo[1,5-a]pyridin-1-yl})methyl]-1-[2-(1H-1,2,3-triazol-5-yl)acetyl]pyrrolidine-2-carboxamide], for which the IC50 in assay [1] (Homo sapiens, HeLa, 24 h) is > 23.9 µM; in assay [2], 1.48 µM.

Consider `CC(C)c1ccc(C(NC(=O)[C@@H]2C[C@@H](F)CN2C(=O)Cc2cnn[nH]2)c2ccc3cn[nH]c3c2)nc1F` (single isomer, unassigned) [Compound 633, (2S,4R)-4-fluoro-N-[(R) or (S)-[6-fluoro-5-(propan-2-yl)pyridin-2-yl](1H-indazol-6-yl)methyl]-1-[2-(1H-1,2,3-triazol-5-yl)acetyl]pyrrolidine-2-carboxamide], for which the values for the half-inhibitory concentration (IC50) in assay [1] and in assay [2] were > 30 µM and 1.6 µM, respectively.

For the compound `Cn1c(=O)[nH]c2c(C(NC(=O)[C@@H]3C[C@@H](F)CN3C(=O)Cc3cnn[nH]3)c3ccc(C4CC4)c(F)c3)cccc21` (single isomer, unassigned) [Compound 650, (2S,4R)-N-[(R) or (S)-(4-cyclopropyl-3-fluorophenyl)(1-methyl-2-oxo-2,3-dihydro-1H-1,3-benzodiazol-4-yl)methyl]-4-fluoro-1-[2-(1H-1,2,3-triazol-5-yl)acetyl]pyrrolidine-2-carboxamide], the IC50 in assay [1] (Homo sapiens, HeLa, 24 h) was > 10 µM; in assay [2], 1.44 µM.

With `CC(C)c1ccc(C(NC(=O)[C@@H]2C[C@@H](F)CN2C(=O)Cc2cnn[nH]2)C2CC2)cc1F` (single isomer, unassigned) [Compound 652, (2S,4R)-N-[(S) or (R)-cyclopropyl[3-fluoro-4-(propan-2-yl)phenyl]methyl]-4-fluoro-1-[2-(1H-1,2,3-triazol-5-yl)acetyl]pyrrolidine-2-carboxamide], the concentration for half-maximal inhibition (IC50) in assay [1] (Homo sapiens, HeLa, 24 h) came out at 21.6 µM; in assay [2], 1.2 µM.

`O=C(NC(c1ccc(C2CC2)c(F)n1)c1ccccc1F)[C@@H]1C[C@@H](F)CN1C(=O)Cn1nnnc1C(F)F` (single isomer, unassigned) [Compound 657, (2S,4R)-N-[(S) or (R)-(5-cyclopropyl-6-fluoropyridin-2-yl)(2-fluorophenyl)methyl]-1-{2-[5-(difluoromethyl)-1H-1,2,3,4-tetrazol-1-yl]acetyl}-4-fluoropyrrolidine-2-carboxamide]: the concentration for half-maximal inhibition (IC50) in assay [1] (Homo sapiens, HeLa, 24 h) was 1.5 µM; in assay [2] it was 0.127 µM.

For the compound `O=C(NC(c1ccc(F)cc1)c1ccc(C2CC2)c(F)n1)[C@@H]1C[C@@H](F)CN1C(=O)Cn1nnnc1C(F)F` (single isomer, unassigned) [Compound 658, (2S,4R)-N-[(S) or (R)-(5-cyclopropyl-6-fluoropyridin-2-yl)(4-fluorophenyl)methyl]-1-{2-[5-(difluoromethyl)-1H-1,2,3,4-tetrazol-1-yl]acetyl}-4-fluoropyrrolidine-2-carboxamide], the IC50 in assay [1] (Homo sapiens, HeLa, 24 h) was found to be 1.66 µM; in assay [2], 0.099 µM.

For the compound `Cc1cc(C(NC(=O)[C@@H]2C[C@@H](F)CN2C(=O)Cc2cnn[nH]2)c2ccccc2)cc(F)c1C(C)C` (single isomer, unassigned) [Compound 678, (2S,4R)-4-fluoro-N-[(R) or (S)-[3-fluoro-5-methyl-4-(propan-2-yl)phenyl](phenyl)methyl]-1-[2-(1H-1,2,3-triazol-5-yl)acetyl]pyrrolidine-2-carboxamide], the values for the IC50 in assay [1] and in assay [2] were > 10 µM and 1.06 µM, respectively.

In the case of `CC(C)c1ccc(C(NC(=O)[C@@H]2C[C@@H](F)CN2C(=O)Cc2cnn[nH]2)c2ccccc2)cc1C(F)(F)F` (single isomer, unassigned) [Compound 683, (2S,4R)-4-fluoro-N-[(S) or (R)-phenyl[4-(propan-2-yl)-3-(trifluoromethyl)phenyl]methyl]-1-[2-(1H-1,2,3-triazol-5-yl)acetyl]pyrrolidine-2-carboxamide], the IC50 in assay [1] (Homo sapiens, HeLa, 24 h) is > 30 µM; in assay [2] it was 2.36 µM.

`CC(=O)NCC(=O)N1C[C@H](F)C[C@H]1C(=O)NC(c1cccc(-c2ccn[nH]2)c1)c1ccc(C(C)C)c(F)n1` (single isomer, unassigned) [Compound 691, (2S,4R)-1-(2-acetamidoacetyl)-4-fluoro-N-[(S) or (R)-[6-fluoro-5-(propan-2-yl)pyridin-2-yl][3-(1H-pyrazol-5-yl)phenyl]methyl] pyrrolidine-2-carboxamide]: the IC50 was 0.39 µM in assay [1] (Homo sapiens, HeLa, 24 h) and 0.015 µM in assay [2].

Regarding `CC(C)c1ccc(C(NC(=O)[C@@H]2C[C@@H](F)CN2C(=O)Cc2cnn[nH]2)c2cccc(-c3cnco3)c2)nc1F` (single isomer, unassigned) [Compound 692, (2S,4R)-4-fluoro-N-[(R) or (S)-[6-fluoro-5-(propan-2-yl)pyridin-2-yl][3-(1,3-oxazol-5-yl)phenyl]methyl]-1-[2-(1H-1,2,3-triazol-5-yl)acetyl]pyrrolidine-2-carboxamide], the half-inhibitory concentration (IC50) is > 30 µM in assay [1] and 2.48 µM in assay [2].

For the compound `CC(C)c1ccc(C(NC(=O)[C@@H]2C[C@@H](F)CN2C(=O)Cc2cnn[nH]2)c2cccc(-c3cnco3)c2)nc1F` (single isomer, unassigned) [Compound 693, (2S,4R)-4-fluoro-N-[(S) or (R)-[6-fluoro-5-(propan-2-yl)pyridin-2-yl][3-(1,3-oxazol-5-yl)phenyl]methyl]-1-[2-(1H-1,2,3-triazol-5-yl)acetyl]pyrrolidine-2-carboxamide], the IC50 in assay [1] came out at 1.15 µM; in assay [2], 0.056 µM.

Regarding `CC(=O)N1C[C@H](F)C[C@H]1C(=O)NC(c1cccc(-c2ccnn2C)c1)c1ccc(C(C)C)c(F)n1` (single isomer, unassigned) [Compound 695, (2S,4R)-1-acetyl-4-fluoro-N-[(S) or (R)-[6-fluoro-5-(propan-2-yl)pyridin-2-yl][3-(1-methyl-1H-pyrazol-5-yl)phenyl]methyl] pyrrolidine-2-carboxamide], the IC50 in assay [1] (Homo sapiens, HeLa, 24 h) is > 26.3 µM; in assay [2], 0.929 µM.

Regarding `CC(=O)N1C[C@H](F)C[C@H]1C(=O)NC(c1cccc(-c2cc(C)n[nH]2)c1)c1ccc(C(C)C)c(F)n1` (single isomer, unassigned) [Compound 696, (2S,4R)-1-acetyl-4-fluoro-N-[(S) or (R)-[6-fluoro-5-(propan-2-yl)pyridin-2-yl][3-(3-methyl-1H-pyrazol-5-yl)phenyl]methyl] pyrrolidine-2-carboxamide], the half-maximal inhibitory concentration (IC50) in assay [1] (Homo sapiens, HeLa, 24 h) was 2.71 µM; in assay [2], 0.103 µM.

With `CC(=O)N(C)[C@H](C)C(=O)N1C[C@H](F)C[C@H]1C(=O)N[C@@H](c1ccccc1)c1ccc(C(C)C)cc1` [Compound 145, (2S,4R)-4-fluoro-1-[(2R)-2-(N-methylacetamido)propanoyl]-N-[(S)-phenyl[4-(propan-2-yl)phenyl]methyl]pyrrolidine-2-carboxamide], the IC50 in assay [1] (Homo sapiens, HeLa, 24 h) is > 10 µM; in assay [2], 0.915 µM.

Turning to `CC(=O)N1CCOCC1C(=O)N1C[C@H](F)C[C@H]1C(=O)N[C@@H](c1ccccc1)c1ccc(C(C)C)cc1` (stereo partly drawn) [Compound 149, (2S,4R)-1-(4-acetylmorpholine-3-carbonyl)-4-fluoro-N-[(S)-phenyl[4-(propan-2-yl)phenyl]methyl]pyrrolidine-2-carboxamide], the concentration for half-maximal inhibition (IC50) in assay [1] (Homo sapiens, HeLa, 24 h) is > 10 µM; in assay [2], 0.332 µM.
